These results are taken from ChEMBL document CHEMBL3407357, “Inhibiting the deubiquitinating enzymes (DUBs)” (J Med Chem, 2015).

Experiment [1] has as its target T1, Ubiquitin carboxyl-terminal hydrolase 13 (Homo sapiens, UniProt Q92995).
T1 sequence (Q92995 whole entry): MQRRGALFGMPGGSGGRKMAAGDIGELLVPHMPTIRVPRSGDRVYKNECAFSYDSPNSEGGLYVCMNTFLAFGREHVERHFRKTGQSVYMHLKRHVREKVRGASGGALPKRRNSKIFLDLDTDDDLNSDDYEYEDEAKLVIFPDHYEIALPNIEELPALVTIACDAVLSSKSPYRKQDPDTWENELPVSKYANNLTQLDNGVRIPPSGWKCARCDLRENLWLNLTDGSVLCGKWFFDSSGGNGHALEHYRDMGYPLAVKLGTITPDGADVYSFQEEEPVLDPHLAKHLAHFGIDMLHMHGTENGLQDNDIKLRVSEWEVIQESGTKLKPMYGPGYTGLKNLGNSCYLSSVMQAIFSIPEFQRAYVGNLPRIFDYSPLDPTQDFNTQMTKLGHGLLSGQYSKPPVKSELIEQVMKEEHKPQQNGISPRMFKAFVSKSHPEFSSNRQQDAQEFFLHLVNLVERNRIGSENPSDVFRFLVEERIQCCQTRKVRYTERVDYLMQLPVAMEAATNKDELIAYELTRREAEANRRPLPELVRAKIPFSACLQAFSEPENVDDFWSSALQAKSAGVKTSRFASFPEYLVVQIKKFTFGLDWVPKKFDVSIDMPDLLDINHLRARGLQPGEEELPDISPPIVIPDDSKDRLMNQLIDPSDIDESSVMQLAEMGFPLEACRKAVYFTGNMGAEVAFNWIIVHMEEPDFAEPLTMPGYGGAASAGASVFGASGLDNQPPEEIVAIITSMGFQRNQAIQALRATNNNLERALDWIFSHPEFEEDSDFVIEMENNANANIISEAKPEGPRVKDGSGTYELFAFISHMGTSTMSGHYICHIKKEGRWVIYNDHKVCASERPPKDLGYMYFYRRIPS
Description: Inhibition of USP13 (unknown origin) by Ub-AMC assay.

For experiment [2], the target named is Ubiquitin carboxyl-terminal hydrolase 10 (Homo sapiens, UniProt Q14694). The experiment in a line: Inhibition of USP10 (unknown origin) by Ub-AMC assay.
Experiment [3] addresses T2, Ubiquitin carboxyl-terminal hydrolase 7 (Homo sapiens, UniProt Q93009). The experiment in a line: Inhibition of USP7 (unknown origin) by Ub-CHOP reporter assay. (A reporter such as luciferase makes a cellular process visible.)
Experiment [4] has as its target T2, Ubiquitin carboxyl-terminal hydrolase 7. The experiment in a line: Inhibition of USP7 (unknown origin) by Ub-AMC assay.
A short description of experiment [5]: Steady state intracellular drug concentration after 1 hr by LC-MS and UV spectroscopy by cell based assay.
Experiment [6] concerns the target T3, Ubiquitin carboxyl-terminal hydrolase 1 (Homo sapiens, UniProt O94782).
T3 sequence (O94782 whole entry): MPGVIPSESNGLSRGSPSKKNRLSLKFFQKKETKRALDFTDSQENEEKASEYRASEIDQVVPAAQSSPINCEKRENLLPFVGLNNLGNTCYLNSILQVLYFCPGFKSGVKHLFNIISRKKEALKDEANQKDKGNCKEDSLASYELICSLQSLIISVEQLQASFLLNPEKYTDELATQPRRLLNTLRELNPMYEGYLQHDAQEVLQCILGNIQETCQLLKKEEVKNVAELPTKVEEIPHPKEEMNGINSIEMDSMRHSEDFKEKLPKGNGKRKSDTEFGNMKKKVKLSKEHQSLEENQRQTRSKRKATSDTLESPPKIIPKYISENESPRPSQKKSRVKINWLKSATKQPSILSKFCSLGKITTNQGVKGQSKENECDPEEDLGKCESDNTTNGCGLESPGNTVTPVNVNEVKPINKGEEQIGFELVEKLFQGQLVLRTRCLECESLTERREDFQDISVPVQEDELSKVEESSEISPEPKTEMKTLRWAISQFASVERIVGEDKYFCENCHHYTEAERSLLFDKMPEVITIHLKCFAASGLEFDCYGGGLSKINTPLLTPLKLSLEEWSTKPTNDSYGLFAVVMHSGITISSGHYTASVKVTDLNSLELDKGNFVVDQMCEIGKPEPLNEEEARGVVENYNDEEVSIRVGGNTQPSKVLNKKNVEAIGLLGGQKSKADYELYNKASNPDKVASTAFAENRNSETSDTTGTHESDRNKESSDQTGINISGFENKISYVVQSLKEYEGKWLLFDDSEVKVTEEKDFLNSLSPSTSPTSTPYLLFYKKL
Description: Inhibition of USP1 (unknown origin) by Ub-AMC assay.

Experiment [7] concerns the target T2, Ubiquitin carboxyl-terminal hydrolase 7. Description: Inhibition of USP7 in multiple myeloma cells (unknown origin) by immunohistochemistry. Format: cell-based.

Each structure is given as a SMILES string.

As usually defined, the IC50 is the point on the concentration scale where inhibition reaches its midpoint. As a reminder, the EC50 is the concentration giving half of the maximal effect. Higher therefore signals lower potency in that assay.

T2 sequence (Q93009 whole entry): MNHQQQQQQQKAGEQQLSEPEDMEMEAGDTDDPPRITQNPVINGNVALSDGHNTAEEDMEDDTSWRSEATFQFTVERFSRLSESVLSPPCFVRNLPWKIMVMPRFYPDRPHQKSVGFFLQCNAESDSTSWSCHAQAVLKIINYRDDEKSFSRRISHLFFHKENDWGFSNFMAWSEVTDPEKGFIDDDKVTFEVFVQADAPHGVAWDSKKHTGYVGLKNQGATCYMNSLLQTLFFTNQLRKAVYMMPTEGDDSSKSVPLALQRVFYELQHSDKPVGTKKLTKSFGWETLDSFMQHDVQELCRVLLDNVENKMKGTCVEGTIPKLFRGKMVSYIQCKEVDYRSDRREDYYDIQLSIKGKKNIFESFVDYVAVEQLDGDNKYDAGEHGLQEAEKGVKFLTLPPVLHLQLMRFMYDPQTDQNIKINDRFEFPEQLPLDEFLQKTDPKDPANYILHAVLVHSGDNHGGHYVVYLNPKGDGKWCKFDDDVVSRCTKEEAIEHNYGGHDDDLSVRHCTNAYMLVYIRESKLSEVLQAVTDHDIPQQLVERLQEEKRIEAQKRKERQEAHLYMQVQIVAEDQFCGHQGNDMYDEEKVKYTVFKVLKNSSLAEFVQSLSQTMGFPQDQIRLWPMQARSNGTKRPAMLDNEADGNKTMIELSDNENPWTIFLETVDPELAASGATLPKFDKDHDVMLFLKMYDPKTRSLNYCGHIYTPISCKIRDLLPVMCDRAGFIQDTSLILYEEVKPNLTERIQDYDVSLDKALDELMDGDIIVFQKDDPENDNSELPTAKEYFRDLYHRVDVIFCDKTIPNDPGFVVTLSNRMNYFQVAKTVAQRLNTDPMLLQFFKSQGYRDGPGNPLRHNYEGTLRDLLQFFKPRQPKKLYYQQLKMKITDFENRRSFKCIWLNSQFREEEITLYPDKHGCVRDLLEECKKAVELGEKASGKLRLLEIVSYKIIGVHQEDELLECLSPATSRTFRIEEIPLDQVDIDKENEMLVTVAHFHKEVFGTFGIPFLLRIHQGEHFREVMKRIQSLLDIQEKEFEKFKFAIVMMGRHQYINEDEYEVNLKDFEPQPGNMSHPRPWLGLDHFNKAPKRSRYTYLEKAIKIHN
Ubiquitin carboxyl-terminal hydrolase 10, sequence (Q14694 whole entry): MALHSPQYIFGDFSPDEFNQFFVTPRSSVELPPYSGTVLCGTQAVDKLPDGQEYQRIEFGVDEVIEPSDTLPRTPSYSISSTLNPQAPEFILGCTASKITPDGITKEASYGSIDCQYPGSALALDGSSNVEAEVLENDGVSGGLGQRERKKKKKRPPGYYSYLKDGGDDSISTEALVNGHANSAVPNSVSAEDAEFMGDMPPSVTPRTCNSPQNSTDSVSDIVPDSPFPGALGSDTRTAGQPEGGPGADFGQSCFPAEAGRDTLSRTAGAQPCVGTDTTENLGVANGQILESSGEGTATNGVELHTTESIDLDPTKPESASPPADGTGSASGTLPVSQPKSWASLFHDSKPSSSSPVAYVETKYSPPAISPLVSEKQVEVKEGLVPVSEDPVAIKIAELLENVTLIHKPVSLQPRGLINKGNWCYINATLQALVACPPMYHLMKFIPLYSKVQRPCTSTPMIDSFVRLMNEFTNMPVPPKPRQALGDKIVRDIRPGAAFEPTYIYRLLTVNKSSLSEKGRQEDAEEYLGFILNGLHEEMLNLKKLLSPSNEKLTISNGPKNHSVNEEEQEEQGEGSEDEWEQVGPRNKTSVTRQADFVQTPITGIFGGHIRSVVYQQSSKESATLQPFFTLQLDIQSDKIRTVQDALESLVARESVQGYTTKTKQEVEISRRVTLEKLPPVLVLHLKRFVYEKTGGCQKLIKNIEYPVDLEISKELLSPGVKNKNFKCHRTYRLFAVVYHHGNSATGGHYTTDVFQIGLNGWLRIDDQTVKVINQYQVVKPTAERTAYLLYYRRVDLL

With `Fc1ccc(CNc2ncnc3ccc(F)cc23)cc1`, the concentration for half-maximal inhibition (IC50) in experiment [1] and in experiment [2] was 600 nM throughout.

For `CC(=O)c1cc([N+](=O)[O-])c(Sc2cccc(Cl)c2Cl)s1`, the response in experiment [3] was half-maximal at 8000 nM (EC50).

The compound `N#Cc1nc2c(nc1C#N)-c1cc(Cl)ccc1C2=O` had an IC50 in experiment [4] of 420 nM. In other words, the sub-micromolar range. `Cc1cc(C(=O)CN2CCCC2)c(C)n1-c1ccc(F)cc1` gave a Drug uptake in experiment [5] of 13 µM. `O=C1c2ccccc2C(=O)c2oc(-c3ccccc3)nc21`: the IC50 in experiment [6] is 544 nM. As to `O=[N+]([O-])c1cc(CCO)sc1Sc1cccc(Cl)c1Cl`, in experiment [7], the EC50 is 20100 nM.
